Results reported in paper PMC11904604, “MRM-based LC-MS method for accurate C-peptide quantitation” (Journal of Mass Spectrometry and Advances in the Clinical …, 2025).

Assay: in vitro
Settings: human, serum

CC(C)C[C@H](NC(=O)[C@H](C)NC(=O)[C@H](CC(C)C)NC(=O)[C@@H]1CCCN1C(=O)[C@H](CCC(N)=O)NC(=O)[C@H](CC(C)C)NC(=O)[C@H](CO)NC(=O)CNC(=O)[C@H](C)NC(=O)CNC(=O)[C@@H]1CCCN1C(=O)CNC(=O)CNC(=O)CNC(=O)[C@H](CC(C)C)NC(=O)[C@H](CCC(=O)O)NC(=O)[C@@H](NC(=O)[C@H](CCC(N)=O)NC(=O)CNC(=O)[C@@H](NC(=O)[C@H](CCC(N)=O)NC(=O)[C@H](CC(C)C)NC(=O)[C@H](CC(=O)O)NC(=O)[C@H](CCC(=O)O)NC(=O)[C@H](C)NC(=O)[C@@H](N)CCC(=O)O)C(C)C)C(C)C)C(=O)N[C@@H](CCC(=O)O)C(=O)NCC(=O)N[C@@H](CO)C(=O)N[C@@H](CC(C)C)C(=O)N[C@@H](CCC(N)=O)C(=O)O [C-peptide]
metabolised at 48 h, 0.53 nmol/L: 2.4%
metabolised at 48 h, 2.88 nmol/L: 6.3%
